Assay results from publication PMC8037182, “Solvothermal Synthesis of Multiple Dihydropyrimidinones at a Time as Inhibitors of Eg5” (Molecules, 2021).
pIC50: −log10 of the molar value.

What was measured:
Caco-2 cell line = assay: Cytotoxicity MTS assay, Caco-2 cell line; format: cell-based; settings: for OD490 Mean / OD490 Well 1 / OD490 Well 2 / OD490 Well 3: Caco-2 cell line
Protocol: (§1) The positive compounds (IC50 < 100 μM) obtained from the primary Eg5 motor protein ATPase assay were tested for antiproliferative activity in vitro against Caco-2 cell line, Hela cell line, L929 cell line and T24 cell line by performing MTS assay. Cells were introduced into 96-well plates at a density of 1000 cells per well. After 24 h incubation, the cells were exposed with compounds at final concentrations ranging from 0.5 to 100 µM for 24 h. DMSO was used at a final concentration of 0.025% as blank control, monastrol was used as the positive control. Then 20 µL (CellTiter 96® AQueous One Solution Promega, Madison, WI, USA) reagent was added in each well. After 2 h at 37 °C in a 80% humidified, 5% CO2 atmosphere, the absorbance at 490 nm was recorded using a microplate reader (BIO-RAD iMark^TM). The results were obtained in three independent duplicate experiments. The primary data were shown in Supplementary Materials Tables S4–S7. The IC50 values for these compounds were calculated from a non-linear regression graph plotted between the percentage of cell viability and concentration with SPSS17.0 software.

T24 cell line = assay: Cytotoxicity MTS assay, T24 cell line; format: cell-based; settings: for OD490 Mean / OD490 Well 1 / OD490 Well 2 / OD490 Well 3: T24 cell line, first assay
Protocol: as §1

SMILES: COC(=O)c1[nH]c(C2NC(=S)NC(C)=C2C(=O)c2ccccc2)c(C(=O)OC)c1C (stereo not shown) [D14]
- OD490 Mean (Caco-2 cell line; 0.5μM, first assay): 0.5996
- OD490 Well 1 (Caco-2 cell line; 0.5μM, first assay): 0.5553
- OD490 Well 2 (Caco-2 cell line; 0.5μM, first assay): 0.5560
- OD490 Well 3 (Caco-2 cell line; 0.5μM, first assay): 0.6875
- OD490 Mean (Caco-2 cell line; 0.5μM, second assay): 0.6725
- OD490 Well 1 (Caco-2 cell line; 0.5μM, second assay): 0.6506
- OD490 Well 2 (Caco-2 cell line; 0.5μM, second assay): 0.6879
- OD490 Well 3 (Caco-2 cell line; 0.5μM, second assay): 0.6791
- OD490 Mean (Caco-2 cell line; 0.5μM, third assay): 0.6452
- OD490 Well 1 (Caco-2 cell line; 0.5μM, third assay): 0.6120
- OD490 Well 2 (Caco-2 cell line; 0.5μM, third assay): 0.6285
- OD490 Well 3 (Caco-2 cell line; 0.5μM, third assay): 0.6952
- OD490 Mean (Caco-2 cell line; 1μM, second assay): 0.6718
- OD490 Well 1 (Caco-2 cell line; 1μM, second assay): 0.6251
- OD490 Well 2 (Caco-2 cell line; 1μM, second assay): 0.6916
- OD490 Well 3 (Caco-2 cell line; 1μM, second assay): 0.6987
- OD490 Mean (Caco-2 cell line; 1μM, third assay): 0.6246
- OD490 Well 1 (Caco-2 cell line; 1μM, third assay): 0.6324
- OD490 Well 2 (Caco-2 cell line; 1μM, third assay): 0.6014
- OD490 Well 3 (Caco-2 cell line; 1μM, third assay): 0.6401
- OD490 Mean (Caco-2 cell line; 10μM, first assay): 0.6223
- OD490 Well 1 (Caco-2 cell line; 10μM, first assay): 0.6178
- OD490 Well 2 (Caco-2 cell line; 10μM, first assay): 0.6082
- OD490 Well 3 (Caco-2 cell line; 10μM, first assay): 0.6409
- OD490 Mean (Caco-2 cell line; 10μM, second assay): 0.6139
- OD490 Well 1 (Caco-2 cell line; 10μM, second assay): 0.6136
- OD490 Well 2 (Caco-2 cell line; 10μM, second assay): 0.6117
- OD490 Well 3 (Caco-2 cell line; 10μM, second assay): 0.6164
- OD490 Mean (Caco-2 cell line; 10μM, third assay): 0.6241
- OD490 Well 1 (Caco-2 cell line; 10μM, third assay): 0.5987
- OD490 Well 2 (Caco-2 cell line; 10μM, third assay): 0.6312
- OD490 Well 3 (Caco-2 cell line; 10μM, third assay): 0.6424
- OD490 Mean (Caco-2 cell line; 25μM, first assay): 0.5939
- OD490 Well 1 (Caco-2 cell line; 25μM, first assay): 0.5396
- OD490 Well 2 (Caco-2 cell line; 25μM, first assay): 0.5578
- OD490 Well 3 (Caco-2 cell line; 25μM, first assay): 0.6844
- OD490 Mean (Caco-2 cell line; 25μM, second assay): 0.5279
- OD490 Well 1 (Caco-2 cell line; 25μM, second assay): 0.4988
- OD490 Well 2 (Caco-2 cell line; 25μM, second assay): 0.5384
- OD490 Well 3 (Caco-2 cell line; 25μM, second assay): 0.5466
- OD490 Mean (Caco-2 cell line; 25μM, third assay): 0.5570
- OD490 Well 1 (Caco-2 cell line; 25μM, third assay): 0.5324
- OD490 Well 2 (Caco-2 cell line; 25μM, third assay): 0.5784
- OD490 Well 3 (Caco-2 cell line; 25μM, third assay): 0.5601
- OD490 Mean (Caco-2 cell line; 50μM, first assay): 0.5128
- OD490 Well 1 (Caco-2 cell line; 50μM, first assay): 0.5310
- OD490 Well 2 (Caco-2 cell line; 50μM, first assay): 0.5192
- OD490 Well 3 (Caco-2 cell line; 50μM, first assay): 0.4883
- OD490 Mean (Caco-2 cell line; 50μM, second assay): 0.5200
- OD490 Well 1 (Caco-2 cell line; 50μM, second assay): 0.5229
- OD490 Well 2 (Caco-2 cell line; 50μM, second assay): 0.564
- OD490 Well 3 (Caco-2 cell line; 50μM, second assay): 0.4732
- OD490 Mean (Caco-2 cell line; 50μM, third assay): 0.4713
- OD490 Well 1 (Caco-2 cell line; 50μM, third assay): 0.4985
- OD490 Well 2 (Caco-2 cell line; 50μM, third assay): 0.4532
- OD490 Well 3 (Caco-2 cell line; 50μM, third assay): 0.4621
- OD490 Mean (Caco-2 cell line; 100μM, first assay): 0.4642
- OD490 Well 1 (Caco-2 cell line; 100μM, first assay): 0.4537
- OD490 Well 2 (Caco-2 cell line; 100μM, first assay): 0.4965
- OD490 Well 3 (Caco-2 cell line; 100μM, first assay): 0.4424
- OD490 Mean (Caco-2 cell line; 100μM, second assay): 0.4817
- OD490 Well 1 (Caco-2 cell line; 100μM, second assay): 0.4326
- OD490 Well 2 (Caco-2 cell line; 100μM, second assay): 0.5246
- OD490 Well 3 (Caco-2 cell line; 100μM, second assay): 0.4878
- OD490 Mean (Caco-2 cell line; 100μM, third assay): 0.4653
- OD490 Well 1 (Caco-2 cell line; 100μM, third assay): 0.4632
- OD490 Well 2 (Caco-2 cell line; 100μM, third assay): 0.4397
- OD490 Well 3 (Caco-2 cell line; 100μM, third assay): 0.4930
- pIC50 (Caco-2 cell line; MTS assay, 24 h exposure): 3.99
- pIC50 (T24 cell line; MTS assay, 24 h exposure): < 3.82
- OD490 Mean (T24 cell line; 0.5μM): 1.1342
- OD490 Well 1 (T24 cell line; 0.5μM): 1.0996
- OD490 Well 2 (T24 cell line; 0.5μM): 1.1541
- OD490 Well 3 (T24 cell line; 0.5μM): 1.1489
- OD490 Mean (T24 cell line; 1μM): 1.3301
- OD490 Well 1 (T24 cell line; 1μM): 1.2266
- OD490 Well 2 (T24 cell line; 1μM): 1.4478
- OD490 Well 3 (T24 cell line; 1μM): 1.3160
- OD490 Mean (T24 cell line; 10μM): 1.2661
- OD490 Well 1 (T24 cell line; 10μM): 1.2502
- OD490 Well 2 (T24 cell line; 10μM): 1.2630
- OD490 Well 3 (T24 cell line; 10μM): 1.2850
- OD490 Mean (T24 cell line; 25μM): 1.2456
- OD490 Well 1 (T24 cell line; 25μM): 1.2555
- OD490 Well 2 (T24 cell line; 25μM): 1.2167
- OD490 Well 3 (T24 cell line; 25μM): 1.2646
- OD490 Mean (T24 cell line; 50μM): 1.2309
- OD490 Well 1 (T24 cell line; 50μM): 1.2932
- OD490 Well 2 (T24 cell line; 50μM): 1.1700
- OD490 Well 3 (T24 cell line; 50μM): 1.2295
- OD490 Mean (T24 cell line; 100μM): 1.4227
- OD490 Well 1 (T24 cell line; 100μM): 1.3732
- OD490 Well 2 (T24 cell line; 100μM): 1.4320
- OD490 Well 3 (T24 cell line; 100μM): 1.4629
